From US20120129842A1, “BISTHIAZOLE INHIBITORS OF PRO-MATRIX METALLOPROTEINASE ACTIVATION” (priority 2010, published 2012) come the findings set out here.

The target in test [1] is T1, full-length proMMP9(1-707) (SEQ ID NO:1) (Homo sapiens, UniProt P14780, R574P).
T1 construct: made in house; host or cells: HEK293 (proMMP9, secreted); E. coli (MMP3)
As to the kind of experiment: proMMP9/MMP3 P126 Activation Assay. Type of test: biochemical. Particulars: 20 nM proMMP9, 20 nM MMP3, 80 min 37° C. How it is done: The reaction volume was 50 μL. […] Reactivity of residual MMP3 towards P-126 substrate was minimal under these conditions.

In test [2] the target is T2, proMMP9(67-444;ΔFnII) (SEQ ID NO:5) (Homo sapiens, UniProt P14780, DEL216-390).
T2 construct: start methionine (N); made in house; host or cells: E. coli BL21(DE3) RIL
T2 sequence (P14780 with tags, fused parts or gaps DEL216-390): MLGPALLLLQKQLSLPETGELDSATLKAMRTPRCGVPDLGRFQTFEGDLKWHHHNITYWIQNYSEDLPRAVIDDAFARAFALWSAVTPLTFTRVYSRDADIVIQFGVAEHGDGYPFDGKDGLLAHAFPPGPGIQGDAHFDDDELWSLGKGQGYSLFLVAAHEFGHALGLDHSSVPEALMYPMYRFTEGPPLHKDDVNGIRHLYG
As to the kind of experiment: ThermoFluor binding assay with proMMP9(67-444;ΔFnII). Particulars: pH 7.0. Put shortly: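 Thermal shift binding with 3.5 μM proMMP9(67-444;ΔFnII) and 50 μM 1,8-ANS in 50 mM HEPES pH 7.0, 100 mM NaCl, 2.5 mM MgCl2, 300 μM CaCl2, 0.001% Tween-20, with serially diluted compound. Heated 40 to 90° C at 1° C/min; fluorescence-derived Tm fitted using DSC/ThermoFluor thermodynamic parameters.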

In test [3] the target is T3, proMMP9(20-445;ΔFnII) (SEQ ID NO:6) (Homo sapiens, UniProt P14780, DEL216-390).
T3 construct: start methionine (N); made in house; host or cells: E. coli BL21(DE3) RIL
T3 sequence (P14780 with tags, fused parts or gaps DEL216-390): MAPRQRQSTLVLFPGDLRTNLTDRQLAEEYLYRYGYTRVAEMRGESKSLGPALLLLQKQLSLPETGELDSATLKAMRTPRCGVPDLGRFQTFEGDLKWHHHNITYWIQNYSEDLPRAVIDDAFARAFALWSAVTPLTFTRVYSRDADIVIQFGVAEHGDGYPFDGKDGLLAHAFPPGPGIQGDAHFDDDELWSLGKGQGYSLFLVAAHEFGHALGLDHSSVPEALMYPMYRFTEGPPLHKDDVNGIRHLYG
Kind of test: ThermoFluor binding assay with proMMP9(20-445;ΔFnII). Particulars: pH 7.0. Put shortly: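 proMMP9(20-445;ΔFnII) at 2.8 μM with 50 μM 1,8-ANS in 50 mM HEPES pH 7.0, 100 mM NaCl, 0.001% Tween-20, 2.5 mM MgCl2, 300 μM CaCl2; compounds serially diluted in DMSO. Heated 40–90 °C at 1 °C/min, fluorescence read at 500±25 nm. Tm fit by standard equations; binding fit using DSC/TF-derived thermodynamic parameters.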

The target of test [4] is proMMP13(1-268) (SEQ ID NO:7) (Homo sapiens, UniProt P45452). Kind of test: ThermoFluor binding assay with proMMP13(1-268). The arrangement: 6xHis (C); made in house. Particulars: pH 7.0. Put shortly:
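Thermal shift binding with 3.5 μM protein and 25 μM 1,8-ANS in 50 mM HEPES pH 7.0, 100 mM NaCl, 0.001% Tween-20, 2.5 mM MgCl2, 300 μM CaCl2. Samples were heated 40 to 90 °C at 1 °C/min, fluorescence read at 500 nm. Tm shifts across an 11-point DMSO dilution series were fitted with DSC-derived thermodynamic parameters.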

Structures can show the parent of a compound that is named as a salt.

T1 sequence (P14780 20-707 R574P): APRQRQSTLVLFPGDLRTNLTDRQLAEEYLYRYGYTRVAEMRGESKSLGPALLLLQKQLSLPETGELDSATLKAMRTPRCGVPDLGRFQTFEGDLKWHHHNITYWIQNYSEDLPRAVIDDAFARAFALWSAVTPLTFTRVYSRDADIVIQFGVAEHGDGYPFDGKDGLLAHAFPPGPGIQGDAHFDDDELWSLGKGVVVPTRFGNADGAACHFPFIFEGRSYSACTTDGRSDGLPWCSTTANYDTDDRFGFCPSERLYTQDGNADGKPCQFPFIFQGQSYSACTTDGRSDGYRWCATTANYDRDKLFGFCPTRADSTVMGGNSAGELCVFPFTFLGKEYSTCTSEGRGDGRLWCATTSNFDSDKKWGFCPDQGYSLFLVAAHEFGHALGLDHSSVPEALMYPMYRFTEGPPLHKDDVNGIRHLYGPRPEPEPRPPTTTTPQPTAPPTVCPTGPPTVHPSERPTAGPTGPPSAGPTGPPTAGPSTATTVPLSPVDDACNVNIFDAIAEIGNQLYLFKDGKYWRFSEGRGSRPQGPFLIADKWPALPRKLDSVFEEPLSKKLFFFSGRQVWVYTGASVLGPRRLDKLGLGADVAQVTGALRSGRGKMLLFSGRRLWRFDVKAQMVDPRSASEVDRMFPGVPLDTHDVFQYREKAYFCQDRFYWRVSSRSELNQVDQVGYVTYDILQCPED

In turn, `CCOC(=O)c1ccc(OCC)c(Nc2nc(-c3sc(NC(C)=O)nc3C)cs2)c1` [Example 83, 3-(2′-Acetylamino-4′-methyl-[4,5′]bithiazolyl-2-ylamino)-4-ethoxy-benzoic acid ethyl ester.HBr] gave an IC50 in test [1] of 480 nM. For the same compound, the results for the equilibrium dissociation constant (Kd) in test [2], in test [3] and in test [4] were 490 nM, 3900 nM and 1500 nM, respectively.
In the same order, the values of `COc1ccc(C(N)=O)cc1Nc1nc(-c2sc(NC(C)=O)nc2C)cs1` [Example 85, 3-(2′-Acetylamino-4′-methyl-[4,5′]bithiazolyl-2-ylamino)-4-methoxy-benzamide.HBr] are 270 nM, 750 nM, 3500 nM and 43000 nM.
As to `COC(=O)c1ccc(OC)c(Nc2nc(-c3sc(N)nc3C)cs2)c1` [Example 86, 3-(2′-Amino-4′-methyl-[4,5′]bithiazolyl-2-ylamino)-4-methoxy-benzoic acid methyl ester TFA], inhibition in test [1] was half-maximal at 610 nM (IC50). Moreover, the Kd was found to be 200 nM in test [2], 1200 nM in test [3] and 3400 nM in test [4].
Regarding `COc1ccc(C(N)=O)cc1Nc1nc(-c2sc(N)nc2C(F)(F)F)cs1` [Example 87, 3-(2′-Amino-4′-trifluoromethyl-[4,5′]bithiazolyl-2-ylamino)-4-methoxy-benzamide.TFA], 1200 nM corresponded to half-maximal inhibition in test [1] (IC50). Moreover, the Kd amounted to 380 nM in test [2], 400 nM in test [3] and 3000 nM in test [4].
In the same order, the values of `Cc1nc(N(C)C)sc1-c1csc(Nc2cc(C(N)=O)ccc2OC(C)C)n1` [Example 88, 3-(2′-Dimethylamino-4′-methyl-[4,5′]bithiazolyl-2-ylamino)-4-isopropoxy-benzamide.TFA] are 380 nM, 650 nM, 100 nM and 950 nM.
In the same order, the values of `Cc1nc(N2CCOCC2)sc1-c1csc(Nc2cc(C(N)=O)ccc2OC(C)C)n1` [Example 89, 4-Isopropoxy-3-(4′-methyl-2′-morpholin-4-yl-[4,5′]bithiazolyl-2-ylamino)-benzamide.TFA] are 330 nM, 390 nM, 63 nM and 710 nM.
`Cc1nc(N2CCN(C)CC2)sc1-c1csc(Nc2cc(C(N)=O)ccc2OC(C)C)n1` [Example 90, 4-Isopropoxy-3-[4′-methyl-2′-(4-methyl-piperazin-1-yl)-[4,5′]bithiazolyl-2-ylamino]-benzamide.TFA]: in test [1], 100 nM corresponded to half-maximal inhibition (IC50). The Kd in test [2] came to 170 nM; in test [3] it was 37 nM; in test [4], 680 nM.
In the same order, the values of `CCN(CC)c1nc(C)c(-c2csc(Nc3cc(C(N)=O)ccc3OC(C)C)n2)s1` [Example 94, 3-(2′-Diethylamino-4′-methyl-[4,5′]bithiazolyl-2-ylamino)-4-isopropoxy-benzamide.TFA] are 400 nM, 1700 nM, 310 nM and 6100 nM.
In the same order, the values of `Cc1nc(Nc2cccnc2)sc1-c1csc(Nc2cc(C(N)=O)ccc2OC(C)C)n1` [Example 95, 4-Isopropoxy-3-[4′-methyl-2′-(pyridin-3-ylamino)-[4,5′]bithiazolyl-2-ylamino]-benzamide.TFA] are 410 nM, 2800 nM, 220 nM and 4100 nM.
In the same order, the values of `Cc1nc(Nc2ccccn2)sc1-c1csc(Nc2cc(C(N)=O)ccc2OC(C)C)n1` [Example 96, 4-Isopropoxy-3-[4′-methyl-2′-(pyridin-2-ylamino)-[4,5′]bithiazolyl-2-ylamino]-benzamide.TFA] are approximately 5000 nM, 3800 nM, 280 nM and 16000 nM.
On to `Cc1nc(-c2ccncc2)sc1-c1csc(Nc2cc(C(N)=O)ccc2OC(C)C)n1` [Example 98, 4-Isopropoxy-3-(4′-methyl-2′-pyridin-4-yl-[4,5′]bithiazolyl-2-ylamino)-benzamide.TFA], for which it took 620 nM to reach half-maximal inhibition in test [1] (IC50). Also, the Kd is 670 nM in test [2], more than 95000 nM in test [3] and 2300 nM in test [4].
For `CCOC(=O)c1nc(C)c(-c2csc(Nc3cc(C(N)=O)ccc3OC(C)C)n2)s1` [Example 99, 2-(5-carbamoyl-2-isopropoxy-phenylamino)-4′-methyl-[4,5′]bithiazolyl-2′-carboxylic acid ethyl esterHBr], in that order: 590 nM, 1100 nM, 270 nM and 2400 nM.
In the same order, the values of `Cc1nc(C(=O)O)sc1-c1csc(Nc2cc(C(N)=O)ccc2OC(C)C)n1` [Example 100, 2-(5-Carbamoyl-2-isopropoxy-phenylamino)-4′-methyl-[4,5′]bithiazolyl-2′-carboxylic acid] are 220 nM, 320 nM, 760 nM and 1400 nM.
In the same order, the values of `Cc1nc(C(=O)N2CCN(C)CC2)sc1-c1csc(Nc2cc(C(N)=O)ccc2OC(C)C)n1` [Example 101, 4-Isopropoxy-3-[4′-methyl-2′-(4-methyl-piperazine-1-carbonyl)-[4,5′]bithiazolyl-2-ylamino]-benzamide.TFA] are 170 nM, 1100 nM, 290 nM and 510 nM.
For `CCN1CCN(C(=O)c2nc(C)c(-c3csc(Nc4cc(C(N)=O)ccc4OC(C)C)n3)s2)CC1` [Example 102, 3-[2′-(4-Ethyl-piperazine-1-carbonyl)-4′-methyl-[4,5′]bithiazolyl-2-ylamino]-4-isopropoxy-benzamide.TFA], in test [1], the IC50 turned out to be 130 nM. For the same compound, the results for the Kd in test [2], in test [3] and in test [4] were 730 nM, 700 nM and 660 nM, respectively.
For `Cc1nc(C(=O)N2CCN(C(C)C)CC2)sc1-c1csc(Nc2cc(C(N)=O)ccc2OC(C)C)n1` [Example 103, 4-Isopropoxy-3-[2′-(4-isopropyl-piperazine-1-carbonyl)-4′-methyl-[4,5]bithiazolyl-2-ylamino]-benzamide.TFA], in that order: 97 nM, 1000 nM, 480 nM and 450 nM.
In the same order, the values of `Cc1nc(C(=O)N2CCCN(C)CC2)sc1-c1csc(Nc2cc(C(N)=O)ccc2OC(C)C)n1` [Example 104, 4-Isopropoxy-3-[4′-methyl-2′-(4-methyl-[1,4]diazepane-1-carbonyl)-[4,5′]bithiazolyl-2-ylamino]-benzamide.TFA] are 130 nM, 610 nM, 460 nM and 530 nM.
The compound `Cc1nc(C(=O)N(C)C)sc1-c1csc(Nc2cc(C(N)=O)ccc2OC(C)C)n1` [Example 106, 2-(5-Carbamoyl-2-isopropoxy-phenylamino)-4′-methyl-[4,5′]bithiazolyl-2′-carboxylic acid dimethylamide.TFA] yielded an IC50 in test [1] of 910 nM. In addition, the values for the Kd in test [2], in test [3] and in test [4] were 500 nM, 1200 nM and 2200 nM, respectively.
In the same order, the values of `Cc1nc(C(=O)N(C)CCN(C)C)sc1-c1csc(Nc2cc(C(N)=O)ccc2OC(C)C)n1` [Example 107, 2-(5-Carbamoyl-2-isopropoxy-phenylamino)-4′-methyl-[4,5′]bithiazolyl-2′-carboxylic acid (2-dimethylamino-ethyl)-methyl-amide.TFA] are 150 nM, 520 nM, 200 nM and 540 nM.
In the same order, the values of `Cc1nc(C(=O)N2CCN(C3CCCCC3)CC2)sc1-c1csc(Nc2cc(C(N)=O)ccc2OC(C)C)n1` [Example 108, 3-[2′-(4-Cyclohexyl-piperazine-1-carbonyl)-4′-methyl-[4,5′]bithiazolyl-2-ylamino]-4-isopropoxy-benzamide.TFA] are 1700 nM, more than 95000 nM, 310 nM and 320 nM.
